From patent publication US20250382344A1, “Soluble GLP1/GIP/NPY2 Receptor Triple Agonists” (Boehringer Ingelheim International GmH, priority 2024, published 2025)
Read-outs that look alike come from different tables or passages of the source. *1 amine or outer side, *2 acyl side, *3 side chain or, on linkers, in order; H or OH if unused. Where a SMILES comes first, the peptide text is derived from it. Side-chain parts run from the residue outwards. [ ]: non-standard residue; d: D form. The star is where a group is joined. Argψ(CH2NH)TyrNH2 = N=C(N)NCCC[C@@H](CN[C@@H](Cc1ccc(O)cc1)C(N)=O)N*; C20 diacid = O=C(O)CCCCCCCCCCCCCCCCCCC(=O)*; C18 diacid = O=C(O)CCCCCCCCCCCCCCCCC(=O)*; γGlu = O=C(O)[C@H](CCC(=O)[*:2])N[*:1]; εLys = N[C@@H](CCCCN[*:1])C(=O)[*:2]; Aib = CC(C)(N)C(=O)O

What was measured:
Type in all cases: cell-based
[1] = biological target: T1, hGLP1R (Homo sapiens, UniProt P43220); assay: hGLP1R CreLuc assay in 0.5% and 100% plasma (HEK-293 CRE-luciferase reporter cells); conditions: HEK-293 reporter cells
T1 construct: expressed in transfected cells; host or cells: HEK-293 CRE-luciferase reporter cells

[2] = biological target: T2, hNPY2R (Homo sapiens, UniProt P49146); assay: hNPY2R CreLuc assay in 0.5% and 100% plasma (HEK-293 CRE-luciferase reporter cells); conditions: HEK-293 reporter cells
T2 construct: expressed in transfected cells; host or cells: HEK-293 CRE-luciferase reporter cells
T2 sequence (P49146 1-381): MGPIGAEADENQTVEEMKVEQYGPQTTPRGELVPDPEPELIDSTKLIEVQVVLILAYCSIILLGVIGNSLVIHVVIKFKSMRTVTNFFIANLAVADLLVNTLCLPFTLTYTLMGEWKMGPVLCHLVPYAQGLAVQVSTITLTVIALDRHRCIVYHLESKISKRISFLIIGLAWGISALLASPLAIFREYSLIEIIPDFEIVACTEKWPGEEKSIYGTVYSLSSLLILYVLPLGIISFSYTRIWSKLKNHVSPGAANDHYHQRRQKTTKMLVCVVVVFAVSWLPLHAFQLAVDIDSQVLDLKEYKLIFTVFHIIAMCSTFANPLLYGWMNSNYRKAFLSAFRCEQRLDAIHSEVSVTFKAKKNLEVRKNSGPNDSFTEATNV

[3] = biological target: T3, hGIPR (Homo sapiens, UniProt P48546); assay: hGIPR CreLuc assay in 0.5% and 100% plasma (CHO CRE-luciferase reporter cells)
T3 construct: expressed in transfected cells; host or cells: CHO CRE-luciferase reporter cells
T3 sequence (P48546 22-466): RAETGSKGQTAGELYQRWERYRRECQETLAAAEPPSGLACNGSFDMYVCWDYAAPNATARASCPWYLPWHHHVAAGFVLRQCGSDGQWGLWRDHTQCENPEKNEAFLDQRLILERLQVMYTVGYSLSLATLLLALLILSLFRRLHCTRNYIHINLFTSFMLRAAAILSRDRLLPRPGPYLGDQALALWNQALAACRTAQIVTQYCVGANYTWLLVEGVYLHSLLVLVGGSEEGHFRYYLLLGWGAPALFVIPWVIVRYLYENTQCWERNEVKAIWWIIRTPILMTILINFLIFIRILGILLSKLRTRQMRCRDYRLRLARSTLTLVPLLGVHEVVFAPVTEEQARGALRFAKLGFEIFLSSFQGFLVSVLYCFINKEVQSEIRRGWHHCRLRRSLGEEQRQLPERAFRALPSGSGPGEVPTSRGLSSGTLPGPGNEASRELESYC

[4] = 0.5% human plasma, read-out: hGLP1R 0.5% hP
[5] = 100% human plasma, read-out: hGLP1R 100% hP
[6] = 0.5% human plasma, read-out: hNPY2R 0.5% hP
[7] = 0.5% human plasma, read-out: hGIPR 0.5% hP
[8] = 100% human plasma, read-out: hGIPR 100% hP
[9] = 100% human plasma, read-out: hNPY2R 100% hP

T1 sequence (P43220 24-463): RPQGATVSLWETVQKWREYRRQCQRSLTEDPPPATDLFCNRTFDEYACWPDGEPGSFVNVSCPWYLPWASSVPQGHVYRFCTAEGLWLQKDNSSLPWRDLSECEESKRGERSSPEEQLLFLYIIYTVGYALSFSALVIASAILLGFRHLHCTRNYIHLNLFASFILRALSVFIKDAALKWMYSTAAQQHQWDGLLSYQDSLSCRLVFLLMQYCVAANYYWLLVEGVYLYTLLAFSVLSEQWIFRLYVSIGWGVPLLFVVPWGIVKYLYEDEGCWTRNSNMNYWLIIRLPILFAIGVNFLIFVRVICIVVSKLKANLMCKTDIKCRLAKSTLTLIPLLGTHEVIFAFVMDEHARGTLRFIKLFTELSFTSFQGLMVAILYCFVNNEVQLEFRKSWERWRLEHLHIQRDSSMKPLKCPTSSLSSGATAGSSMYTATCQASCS

EC50 [1, 4] [nM]	EC50 [1, 5] [nM]	EC50 [2, 6] [nM]	EC50 [3, 7] [nM]	EC50 [3, 8] [nM]	EC50 [2, 9] [nM]	Structure (SMILES)
0.7	1.8	6.4	0.5	2	–	CC[C@H](C)[C@H](NC(=O)[C@H](CC(C)C)NC(=O)[C@H](Cc1c[nH]cn1)NC(=O)[C@H](CCCNC(=N)N)NC(=O)[C@@H](NC(=O)[C@H](Cc1ccccc1)NC(=O)[C@H](C)NC(=O)C(C)(C)NC(=O)[C@H](CCC(N)=O)NC(=O)[C@H](C)NC(=O)[C@H](CCC(N)=O)NC(=O)[C@H](CCCCN)NC(=O)[C@H](CC(=O)O)NC(=O)[C@H](CC(C)C)NC(=O)C(C)(C)NC(=O)[C@@H](NC(=O)[C@H](CO)NC(=O)[C@H](Cc1ccc(O)cc1)NC(=O)[C@H](CC(=O)O)NC(=O)[C@H](CO)NC(=O)[C@@H](NC(=O)[C@H](Cc1ccccc1)NC(=O)[C@@H](NC(=O)CNC(=O)[C@H](CCC(=O)O)NC(=O)C(C)(C)NC(=O)[C@@H](N)Cc1ccc(O)cc1)[C@@H](C)O)[C@@H](C)O)[C@@H](C)CC)C(C)C)C(=O)N[C@@H](CC(N)=O)C(=O)N[C@@H](CCCCNC(=O)[C@@H](N)CCCCNC(=O)CC[C@H](NC(=O)CC[C@H](NC(=O)CC[C@H](NC(=O)CC[C@H](NC(=O)CC[C@H](NC(=O)CC[C@H](NC(=O)CC[C@H](NC(=O)CCCCCCCCCCCCCCCCCCC(=O)O)C(=O)O)C(=O)O)C(=O)O)C(=O)O)C(=O)O)C(=O)O)C(=O)O)C(=O)NC(C)(C)C(=O)N[C@H](C(=O)N[C@@H](CCCNC(=N)N)C(=O)N[C@@H](CCC(N)=O)C(=O)N[C@@H](CCCNC(=N)N)CN[C@@H](Cc1ccc(O)cc1)C(N)=O)[C@@H](C)O [Compound 16, Y-Aib-E-G-T-F-T-S-D-Y-S-I-Aib-L-D-K-Q-A-Q-Aib-A-F-V-R-H-L-I-N-K(1,3)-Aib-T-R-Q-dOR-Y-NH2.C20DA-gGlu-gGlu-gGlu-gGlu-gGlu-gGlu-gGlu-eLys(1,2)] (H-Y[Aib]EGTFTSDYSI[Aib]LDKQAQ[Aib]AFVRHLINK([εLys-γGlu-γGlu-γGlu-γGlu-γGlu-γGlu-γGlu-C20 diacid])[Aib]TRQ-{Argψ(CH2NH)TyrNH2})
0.6	3.8	7.2	0.5	–	–	CC[C@H](C)[C@H](NC(=O)[C@H](Cc1ccccc1)NC(=O)[C@H](C)NC(=O)C(C)(C)NC(=O)[C@H](CCC(N)=O)NC(=O)[C@H](C)NC(=O)[C@H](CCC(N)=O)NC(=O)[C@H](CCCCN)NC(=O)[C@H](CC(=O)O)NC(=O)[C@H](CC(C)C)NC(=O)C(C)(C)NC(=O)[C@@H](NC(=O)[C@H](CO)NC(=O)[C@H](Cc1ccc(O)cc1)NC(=O)[C@H](CC(=O)O)NC(=O)[C@H](CO)NC(=O)[C@@H](NC(=O)[C@H](Cc1ccccc1)NC(=O)[C@@H](NC(=O)CNC(=O)[C@H](CCC(=O)O)NC(=O)C(C)(C)NC(=O)[C@@H](N)Cc1ccc(O)cc1)[C@@H](C)O)[C@@H](C)O)[C@@H](C)CC)C(=O)N[C@@H](CCCNC(=N)N)C(=O)N[C@@H](Cc1c[nH]cn1)C(=O)N[C@@H](CC(C)C)C(=O)N[C@H](C(=O)N[C@@H](CC(N)=O)C(=O)N[C@@H](CCCCNC(=O)[C@@H](N)CCCCNC(=O)CC[C@H](NC(=O)CC[C@H](NC(=O)CC[C@H](NC(=O)CC[C@H](NC(=O)CC[C@H](NC(=O)CC[C@H](NC(=O)CCCCCCCCCCCCCCCCCCC(=O)O)C(=O)O)C(=O)O)C(=O)O)C(=O)O)C(=O)O)C(=O)O)C(=O)NC(C)(C)C(=O)N[C@H](C(=O)N[C@@H](CCCNC(=N)N)C(=O)N[C@@H](CCC(N)=O)C(=O)N[C@@H](CCCNC(=N)N)C(=O)N[C@@H](Cc1ccc(O)cc1)C(N)=O)[C@@H](C)O)[C@@H](C)CC [Compound 81, Y-Aib-E-G-T-F-T-S-D-Y-S-I-Aib-L-D-K-Q-A-Q-Aib-A-F-I-R-H-L-I-N-K(1,3)-Aib-T-R-Q-R-Y-NH2.C20DA-gGlu-gGlu-gGlu-gGlu-gGlu-gGlu-eLys(1,2)]
0.8	–	–	0.3	5.9	162	CC[C@H](C)[C@H](NC(=O)[C@H](CC(C)C)NC(=O)[C@H](Cc1c[nH]cn1)NC(=O)[C@H](CCCNC(=N)N)NC(=O)[C@@H](NC(=O)[C@H](Cc1ccccc1)NC(=O)[C@H](C)NC(=O)C(C)(C)NC(=O)[C@H](CCC(N)=O)NC(=O)[C@H](C)NC(=O)[C@H](CCC(N)=O)NC(=O)[C@H](CCCCN)NC(=O)[C@H](CCC(=O)O)NC(=O)[C@H](CC(C)C)NC(=O)C(C)(C)NC(=O)[C@@H](NC(=O)[C@H](CO)NC(=O)[C@H](Cc1ccc(O)cc1)NC(=O)[C@H](CC(=O)O)NC(=O)[C@H](CO)NC(=O)[C@@H](NC(=O)[C@H](Cc1ccccc1)NC(=O)[C@@H](NC(=O)CNC(=O)[C@H](CCC(=O)O)NC(=O)C(C)(C)NC(=O)[C@@H](N)Cc1ccc(O)cc1)[C@@H](C)O)[C@@H](C)O)[C@@H](C)CC)C(C)C)C(=O)N[C@@H](CC(N)=O)C(=O)N[C@@H](CCCCNC(=O)[C@@H](N)CCCCNC(=O)CC[C@H](NC(=O)CC[C@H](NC(=O)CC[C@H](NC(=O)CC[C@H](NC(=O)CC[C@H](NC(=O)CC[C@H](NC(=O)CCCCCCCCCCCCCCCCC(=O)O)C(=O)O)C(=O)O)C(=O)O)C(=O)O)C(=O)O)C(=O)O)C(=O)NC(C)(C)C(=O)N[C@H](C(=O)N[C@@H](CCCNC(=N)N)C(=O)N[C@@H](CCC(N)=O)C(=O)N[C@@H](CCCNC(=N)N)C(=O)N[C@@H](Cc1ccc(F)cc1)C(N)=O)[C@@H](C)O [Compound 86, Y-Aib-E-G-T-F-T-S-D-Y-S-I-Aib-L-E-K-Q-A-Q-Aib-A-F-V-R-H-L-I-N-K(1,3)-Aib-T-R-Q-R-Phe4F-NH2.C18DA-gGlu-gGlu-gGlu-gGlu-gGlu-gGlu-eLys(1,2)]
0.9	1.7	–	0.3	1.7	125	CC[C@H](C)[C@H](NC(=O)[C@H](CC(C)C)NC(=O)[C@H](Cc1c[nH]cn1)NC(=O)[C@H](CCCNC(=N)N)NC(=O)[C@@H](NC(=O)[C@H](Cc1ccccc1)NC(=O)[C@H](C)NC(=O)C(C)(C)NC(=O)[C@H](CCC(N)=O)NC(=O)[C@H](C)NC(=O)[C@H](CCC(N)=O)NC(=O)[C@H](CCCCN)NC(=O)[C@H](CCC(=O)O)NC(=O)[C@H](CC(C)C)NC(=O)C(C)(C)NC(=O)[C@@H](NC(=O)[C@H](CO)NC(=O)[C@H](Cc1ccc(O)cc1)NC(=O)[C@H](CC(=O)O)NC(=O)[C@H](CO)NC(=O)[C@@H](NC(=O)[C@H](Cc1ccccc1)NC(=O)[C@@H](NC(=O)CNC(=O)[C@H](CCC(=O)O)NC(=O)C(C)(C)NC(=O)[C@@H](N)Cc1ccc(O)cc1)[C@@H](C)O)[C@@H](C)O)[C@@H](C)CC)C(C)C)C(=O)N[C@@H](CC(N)=O)C(=O)N[C@@H](CCCCNC(=O)CC[C@H](NC(=O)CC[C@H](NC(=O)CC[C@H](NC(=O)CC[C@H](NC(=O)CC[C@H](NC(=O)CCCCCCCCCCCCCCCCC(=O)O)C(=O)O)C(=O)O)C(=O)O)C(=O)O)C(=O)O)C(=O)NC(C)(C)C(=O)N[C@H](C(=O)N[C@@H](CCCNC(=N)N)C(=O)N[C@@H](CCC(N)=O)C(=O)N[C@@H](CCCNC(=N)N)CN[C@@H](Cc1ccc(O)cc1)C(N)=O)[C@@H](C)O [Compound 96, Y-Aib-E-G-T-F-T-S-D-Y-S-I-Aib-L-E-K-Q-A-Q-Aib-A-F-V-R-H-L-I-N-K(1,3)-Aib-T-R-Q-dOR-Y-NH2.C18DA-gGlu-gGlu-gGlu-gGlu-gGlu(1,2)] (H-Y[Aib]EGTFTSDYSI[Aib]LEKQAQ[Aib]AFVRHLINK([γGlu-γGlu-γGlu-γGlu-γGlu-C18 diacid])[Aib]TRQ-{Argψ(CH2NH)TyrNH2})
